Series [1] relates to SKBR-3 HER2-overexpressing breast cancer cells.
Method: (§1) Compounds were tested for antiproliferative activity against several cancer cell lines and a control cell line. […] CP was the control peptidomimetic. […] SKOV-3 and Calu-3 are HER2-overexpressing ovarian and lung cancer cells, respectively. (+) and (−) indicate HER2-positive and HER2-negative, respectively.
The nature of series [2]: Stability in mouse serum (electrospray-mass spectrometry).
Method: (§2) Compounds were incubated in mouse serum for various times, and then extracted using a solid-phase extraction technique. The compounds were analyzed with electrospray-mass spectrometry. A known amount of a freshly-prepared internal standard was used for calibration.
The subject of series [3] is SKOV-3 HER2-overexpressing ovarian cancer cells.
Method: as §1
Series [4] relates to Calu-3 HER2-overexpressing lung cancer cells.
Method: as §1
Series [5] deals with MCF-10A normal breast epithelial cell line.
The conditions of series [6]: mouse, serum.
Method: as §2
Series [7] relates to MCF-7 breast cancer cells that do not overexpress HER2.
Method: as §1
Series [8] deals with BT-474 HER2-overexpressing breast cancer cells.
Method: as §1
Series [9] has the same test system. The series can be described thus: cells. The note with it: Homo sapiens, BT-474, read-out: IC50 BT-474 (+).
Method: as §1
Series [10] has as its system HER2-expressing breast tumors (BT-474 cells). The series can be described thus: BT-474 xenograft model of breast cancer, tumor volume. The note with it: 4 mg/kg injected just below the tumor, twice a week for 19 days; Days 9-19. Type of series: in vivo, nude mice. The procedure: We evaluated the ability of Compound 18 to suppress HER2-expressing breast tumors in a xenograft model of breast cancer. Breast cancer tumors were induced in nude mice by injecting 2 million BT-474 cells; these estrogen-dependent cancer cells were stimulated by an implanted estrogen pellet. Compound 9, Compound 18, vehicle, or lapatinib (positive control) were injected just below the tumor at a dose of 4 mg/kg, twice a week for 19 days, for a total of 6 injections. Mice weight and health were monitored daily. Tumor size was measured with Vernier calipers. Tumor volume was estimated using the formula Volume=length×0.5 (width)^2. At the end of the experimental period, mice were euthanized and tumor sections were removed and frozen for further analysis. FIG. 9 depicts tumor volume as a function of time for the various treatments.

Setting [11] is: read-out: IC50 SKBR-3 (+), antiproliferative activity, HER2-positive breast cancer cells, Table 3.
[12] abbreviates: read-out: IC50 SKOV-3 (+), antiproliferative activity, HER2-positive ovarian cancer cells, Table 3.
Where [13] appears, read: read-out: IC50 Calu-3 (+), antiproliferative activity, HER2-positive lung cancer cells, Table 3.
The mark [14] stands for this setting: read-out: IC50 MCF-7 (−), antiproliferative activity, HER2-negative breast cancer cells, Table 3.
Setting [15] is: read-out: IC50 BT-474 (+), antiproliferative activity, HER2-positive breast cancer cells, Table 3.

Like-named read-outs stand apart in the source and are kept apart here. Numbered stars: 1 amine (or outer) side, 2 acyl side, 3 side chain; on linkers, the order of the positions; unused ones are H or OH. Square brackets hold non-standard residues; d marks the D form. Peptide text beside a SMILES is read from it. βAla(3R-(1-naphthyl)) = O=C(C[C@@H](N[*:1])c1cccc2ccccc12)[*:2]; X1 = O=C(CC(N[*:1])c1cccc2ccccc12)[*:2]

As for `N=C(N)NCCC[C@H](N)C(=O)NC(CC(=O)N[C@@H](Cc1ccccc1)C(=O)O)c1cccc2ccccc12` (some centres unmarked) [Compound 5, H2N-R(Anapa)F-OH], the concentration for half-maximal inhibition (IC50) worked out at 396 ± 22 nM in [1] (setting [11]) and 658 ± 40 nM in series [3] (setting [12]). Moreover, the half-life in series [2] (mouse, serum) is 2 to 3 h.

`N=C(N)NCCC[C@@H]1NC(=O)[C@H]2CCCN2C(=O)[C@@H]2CCCN2C(=O)[C@H](CCCNC(=N)N)NC(=O)CC(c2cccc3ccccc23)NC(=O)[C@H](Cc2ccccc2)NC(=O)[C@H](CC(=O)O)NC(=O)[C@H](CC(=O)O)NC(=O)[C@H](Cc2ccccc2)NC(=O)CC(c2cccc3ccccc23)NC1=O` (some centres unmarked) [Compound 18, Cyclo(1,10)PpR(Anapa)FDDF(Anapa)R] (cyclo(P[dP]R[X1]FDDF[X1]R)): the IC50 in [4] (setting [13]) was 18 ± 13 nM; in series [1] (setting [11]) it was 194 ± 46 nM; in [5] (read-out: IC50 MCF-10A, antiproliferative activity, normal breast epithelial cell line), 40000 nM; in [3] (setting [12]) it was 853 ± 102 nM; in [7] (setting [14]), greater than 50000 nM. In addition, in [5], the “toxicity to normal cells” value was “not toxic to normal cells”. In series [6], the half-life is greater than 48 h.

As for `CC(=O)N[C@H](Cc1ccccc1)C(=O)NC(CC(=O)N[C@H](CCCNC(=N)N)C(N)=O)c1cccc2ccccc12` (some centres unmarked) [Compound 21, Ac-f(Anapa)r-NH2], the half-inhibitory concentration (IC50) in series [4] was 1090 ± 310 nM; in series [8], 595 ± 270 nM; in series [1] it was 373 ± 150 nM; in [3] it was 373 ± 150 nM; in series [7], greater than 50000 nM.

Regarding `N=C(N)NCCC[C@@H]1NC(=O)[C@H]2CCCN2C(=O)[C@@H]2CCCN2C(=O)[C@H](CCCCN)NC(=O)C[C@H](c2cccc3ccccc23)NC(=O)[C@H](Cc2ccccc2)NC(=O)[C@H](CC(=O)O)NC(=O)[C@H](CC(=O)O)NC(=O)[C@H](Cc2ccccc2)NC(=O)C[C@H](c2cccc3ccccc23)NC1=O` [Compound 33, Cyclo(PpR-(R)Anapa-FDDF-(R)Anapa-K], the IC50 in [4] was 900 ± 200 nM; in series [8] it was 400 ± 140 nM; in series [1] it was 500 ± 280 nM; in series [7] it was greater than 100000 nM.

`N=C(N)NCCC[C@H]1NC(=O)[C@H]2CCCN2C(=O)[C@@H]2CCCN2C(=O)[C@@H](CCCNC(=N)N)NC(=O)C[C@H](c2cccc3ccccc23)NC(=O)[C@@H](Cc2ccccc2)NC(=O)[C@@H](CC(=O)O)NC(=O)[C@@H](CC(=O)O)NC(=O)[C@@H](Cc2ccccc2)NC(=O)C[C@H](c2cccc3ccccc23)NC1=O` [Compound 38, Cyclo(Ppr-(R)Anapa-fddf-(R)Anapa-r] (cyclo(P[dP][dR][βAla(3R-(1-naphthyl))][dF][dD][dD][dF][βAla(3R-(1-naphthyl))][dR])): the concentration for half-maximal inhibition (IC50) in [4] (read-out: Antiproliferative activity IC50 Calu-3, Table 5) was 550 ± 200 nM; in series [8] (read-out: Antiproliferative activity IC50 BT-474, Table 5), 860 ± 50 nM; in series [1] (read-out: Antiproliferative activity IC50 SKBR-3, Table 5), 800 ± 70 nM; in [7] (read-out: Antiproliferative activity IC50 MCF-7, Table 5), 13500 ± 700 nM.

In [8], `N=C(N)NCCC[C@H]1NC(=O)[C@H]2CCCN2C(=O)[C@@H]2CCCN2C(=O)[C@@H](CC(=O)O)NC(=O)[C@@H](Cc2ccccc2)NC(=O)C[C@H](c2cccc3ccccc23)NC(=O)[C@@H](CCCNC(=N)N)NC(=O)[C@@H](CC(=O)O)NC(=O)[C@@H](Cc2ccccc2)NC(=O)C[C@H](c2cccc3ccccc23)NC1=O` [Compound 41, Cyclo(Ppr-(R)Anapa-fdr-(R)Anapa-fd] (cyclo(P[dP][dR][βAla(3R-(1-naphthyl))][dF][dD][dR][βAla(3R-(1-naphthyl))][dF][dD])) had a 50% inhibitory concentration (IC50) of 850 ± 70 nM.

As for `CS(=O)(=O)CCNCc1ccc(-c2ccc3ncnc(Nc4ccc(OCc5cccc(F)c5)c(Cl)c4)c3c2)o1` [Lapatinib, reference compound], in series [9], the 50% inhibitory concentration (IC50) was determined as 25 ± 4 nM. Besides, in [10], the “tumor volume compared to control” value was “decreased tumor volume”.

Regarding “H2N-K(3-amino-biphenyl propionic acid)F-OH [CP, reference compound]”, the half-maximal inhibitory concentration (IC50) in series [4] (setting [13]), in series [8] (setting [15]), in [1] (setting [11]), in series [3] (setting [12]) and in series [7] (setting [14]) was greater than 100000 nM throughout.

In the case of H2N-R(Anapa)FD-OH [Compound 9], the IC50 in series [4] (setting [13]) stood at 847 ± 71 nM; in series [8] (setting [15]), 785 ± 11 nM; in series [1] (setting [11]), 445 ± 32 nM; in series [3] (setting [12]) it was 417 ± 55 nM; in series [7] (setting [14]), 45000 nM. The “time within which degraded in mouse serum” value in series [2] (mouse serum, FIG. 10) was no more than 24 h. In [10], the “tumor volume compared to control” value is listed as “decreased tumor volume”.

Source of the values: patent US9963486B2, “Peptidomimetics for treating HER2-overexpressed cancer” (Board of Supervisors for the University of Louisiana System, priority 2014, dated 2018).
